Measured values taken from ChEMBL document CHEMBL1649134, “Occurrence of efflux mechanism and cephalosporinase variant in a population of Enterobacter aerogenes and Klebsiella pneumoniae isolates producing extended-spectrum beta-lactamases” (2009).
Calls of active or inactive are those of the source. Peptide text beside a SMILES is read from it. * marks the point of attachment. βNA = c1ccc2cc(N*)ccc2c1

Assays:
[1] = system: Klebsiella pneumoniae; experiment: Inhibition of multidrug resistance efflux pump in Klebsiella pneumoniae isolate 14 assessed as increase in intracellular [14C]chloramphenicol accumulation relative to untreated control
[2] = system: Klebsiella pneumoniae; experiment: Inhibition of multidrug resistance efflux pump in Klebsiella pneumoniae isolate 13 assessed as increase in intracellular [14C]chloramphenicol accumulation relative to untreated control
[3] = system: Klebsiella aerogenes; experiment: Inhibition of multidrug resistance efflux pump in Enterobacter aerogenes isolate 6 assessed as increase in intracellular [14C]chloramphenicol accumulation relative to untreated control; format: cell-based
[4] = system: Klebsiella aerogenes; experiment: Inhibition of multidrug resistance efflux pump in Enterobacter aerogenes isolate 13 assessed as increase in intracellular [14C]chloramphenicol accumulation relative to untreated control; format: cell-based
[5] = system: Klebsiella aerogenes; experiment: Inhibition of multidrug resistance efflux pump in Enterobacter aerogenes isolate 17 assessed as increase in intracellular [14C]chloramphenicol accumulation relative to untreated control; format: cell-based

Measured: inhibition

N=C(N)NCCC[C@H](NC(=O)[C@@H](N)Cc1ccccc1)C(=O)Nc1ccc2ccccc2c1 (H-Phe-Arg-βNA)
active: all assays above
